In assay [1] the test system is MIF. The following applies: covalent inhibitor: result is time-dependent; cited from earlier work.
The target of assay [2] is T1, human MIF (Homo sapiens, UniProt P14174).
T1 sequence (P14174 2-115 limits assumed): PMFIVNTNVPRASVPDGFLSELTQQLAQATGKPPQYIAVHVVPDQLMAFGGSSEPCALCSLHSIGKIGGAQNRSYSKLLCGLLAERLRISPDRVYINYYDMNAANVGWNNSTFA
Nature of the assay: Competitive fluorescence polarization. The assay is classed as binding. The following applies: for Kd: 0.004 μM tracer B, […] MIF, pH 7.4, Kd from IC50 via eq 1. A general note: Polarisation of emitted light reports the rotation of a fluorescent probe.

Assay [3] addresses T1, human MIF. Nature of the assay: HPP tautomerase assay. The assay is classed as biochemical. The settings on record: for Ki: tautomerase inhibition, HPP substrate, pH 6–6.1.
Assay [4] has as its system MIF. The settings on record: cited from earlier work.
The target of assay [5] is MIF. The settings on record: DOPA assay; cited from earlier work.
Another assay concerns the target MIF binding to CD74. The following applies: blocking binding of MIF to CD74; cited from earlier work.

Broadly, the IC50 is the point on the concentration scale where inhibition reaches its midpoint. The term Kd denotes the concentration at which binding is half-saturated. Read a high Kd as a looser complex. A word on the Ki: it is a dissociation constant, usually derived from enzyme kinetics or from competition with a known ligand.

“And” between values parts separate entries of the source, which are not always exact repeats. Equal values may be shown once. Read-outs that look alike come from different tables or passages of the source.

`Ic1cc(-c2ccccc2)ncn1` [4-IPP]: the IC50 in the assay on MIF [1] is 4500 nM. Moreover, at human MIF [2], the Kd was determined as 446 nM. For the same compound, the “time dependence of FP results” value on human MIF [2] (FP monitored for 1 h after the 20 min incubation) is “time dependent”.

On human MIF [3], `COc1ccc(Oc2cn(-c3ccc(O)c(F)c3)nn2)cc1` [5a] yielded a Ki of 1900 nM.

With `O=C(O)c1ccc(Oc2cn(-c3ccc(O)c(F)c3)nn2)cc1` [5b], the Ki on human MIF [3] amounted to 1700 nM.

On to `O=C1Oc2cc(O)ccc2CN1C1CCCCC1` [NVS-1], for which the “fold weaker binding (cyclohexyl analogue vs NVS-2)” value on human MIF [2] was “ca. 10 fold”. Moreover, the Kd on human MIF [2] (Kd) came out at 456 nM. The same compound yielded a Ki on human MIF [3] of 569 nM.

For the compound `COc1ccc(N2Cc3ccc(O)cc3OC2=O)cc1` [NVS-2], on human MIF [2], the “fold stronger binding than NVS-6” value stood at 3 fold. The compound further yielded a ligand efficiency on human MIF [2] ((−2.3RT/HAC) log Kd) of 0.50. Also, the Ki at human MIF [3] was ~30 nM and 30 nM. In addition, at human MIF [3] (from Ki values), the “fold more potent than (R)-ISO-1” value is listed as “roughly 1000 fold”. The concentration for half-maximal inhibition (IC50) with MIF [4] (HPP tautomerase assay) and in the assay with MIF [4] (previously reported) was 20 nM in each case.

Take `O=C1Oc2cc(O)ccc2CN1c1ccc(O)cc1` [NVS-6]: binding on human MIF [2] (Kd) was put at a Kd of 159 nM. The same compound gave a Ki at human MIF [3] of 185 nM.

Regarding `O=c1c(-c2ccc(O)c(O)c2)coc2cc(O)ccc12` [Orita-13], the Ki at MIF [5] was 38 nM.

As to `COc1cc(-c2ccc(N=Nc3ccc4c(S(=O)(=O)O)cc(S(=O)(=O)O)c(N)c4c3O)c(OC)c2)ccc1N=Nc1ccc2c(S(=O)(=O)O)cc(S(=O)(=O)O)c(N)c2c1O` [PSB], the half-inhibitory concentration (IC50) at MIF binding to CD74 was 810 nM.
